Measured values: patent US10328093B2, “Anthracycline formulations” (CYTRX CORPORATION, priority 2012, dated 2019)
Several values for one entry are separate records, joined by “and”; a condition that tells them apart may be missing. Equal entries are not always repeated.

Legend:
[1] = system: dogs; settings: acute and repeat-dose; cited from earlier work
[2] = system: advanced cancer patients; settings: Phase 1, 41 advanced cancer patients, cited from earlier work
[3] = pH stability study of DOXO-EMCH in DI Water or pH 4.0 buffer (RP-HPLC); format: physicochemical; settings: for DOXO-EMCH / Doxorubicin / pH: room temperature
Description: (§1) To analyze DOXO-EMCH's behavior in solution, a reversed-phase (RP) HPLC method for quantitation of DOXO-EMCH and various impurities and degradation products was utilized. Samples (1.0 μL injection volume) were assayed on an HPLC system fitted with a Phenomenex Gemini C18 column 100×2.0 mm, 3 μm at a flow rate of 0.3 mL/min. The mobile phase used was an acetate/acetonitrile gradient. The degradation product EMCH could not be detected using the above HPLC method, and was therefore determined using a liquid chromatography-mass spectrometry (LC-MS) method.
Studies were performed to examine the effects of pH on DOXO-EMCH stability. In these studies, a criterion of less than 3% doxorubicin over 3-5 hours was set as the goal for stability of DOXO-EMCH. Overall, studies were designed to measure the degradation of DOXO-EMCH at room temperature into doxorubicin and EMCH. Doxorubicin was measured as a percentage of the starting DOXO-EMCH material. Due to solubility issues, the buffer controlled pH portion of the study could not be completed at pH 5.0, 5.5, 6.0 and 7.0. The results below are for DOXO-EMCH dissolved in DI Water at low (2.0 mg/mL) and high (20.0 mg/mL) concentration, and DOXO-EMCH dissolved in pH 4.0 phosphate citrate buffer at low concentration. In summary, none of the conditions met the goal of less than 3% doxorubicin HCl over a 3-5 hour period. […] The DOXO-EMCH dissolved in pH 4.0 phosphate citrate buffer was very unstable, likely as a result of the breakdown of the molecule at pH values below ˜4.5 (Table 6).

[4] = system: mice; settings: acute and repeat-dose; cited from earlier work
[5] = system: rats; settings: acute and repeat-dose; cited from earlier work
[6] = Solubility and stability of lyophilized DOXO-EMCH reconstituted in diluents at 10 mg/mL; format: physicochemical; settings: for pH: ambient conditions
Description: as §1
Having established preliminary information on DOXO-EMCH's properties when dissolved in NS, LR, and D5W, a follow-up study was designed to evaluate (1) the solubility and stability of DOXO-EMCH in selected diluents upon reconstitution and (2) the subsequent stability of various IV Admixtures. Diluents included Sterile Water for Injection (SWFI), Lactated Ringers Solution (LR), and 50% (v/v) ethanol/SWFI.
The study evaluating solubility and stability of lyophilized DOXO-EMCH reconstituted in SWFI, LR, and 50% (v/v) ethanol/SWFI was conducted using a target DOXO-EMCH concentration of 10 mg/mL. To obtain a 10 mg/mL concentration, 20 mL of diluent was added to a vial containing 200 mg of lyophilized DOXO-EMCH, and the vial was gently swirled to dissolve the contents and obtain a homogeneous mixture. The sample was mixed and visually inspected for complete reconstitution to a clear solution for a) approximately 30 seconds, b) approximately 60 seconds, and c) 120 seconds, then up to a total of 10 minutes. If more than 120 seconds were required for visual clarity, the vial may have been intermittently swirled up to a maximum of 10 minutes. Duplicate vials were prepared for each study. Each vial was assessed 10 minutes and 20 minutes after the addition of reconstitution diluent for visual appearance of the reconstituted solution and sampled at these time points for determination of DOXO-EMCH content, doxorubicin content, and solution pH. If a given diluent was determined to provide acceptable solubilization and stability of the vial contents after 20 minutes at ambient conditions, the diluent proceeded directly to part 2 of the study.
The reconstituted solution was evaluated for color, clarity, and absence of insoluble material in the vial after every 30 seconds of mixing. Following addition of the reconstituted drug product solution to the IV bag, the resulting IV Admixture was evaluated for color, clarity, and absence of any insoluble material immediately after mixing and at each analytical time point. The amount (area %) of the degradation product doxorubicin was determined at each time point.

[7] = ~2.0 mg/mL in DI Water, no pH adjustment, 0 hr
[8] = ~2.0 mg/mL in DI Water, no pH adjustment, 2 hr
[9] = ~2.0 mg/mL in DI Water, no pH adjustment, 4 hr
[10] = ~2.0 mg/mL in DI Water, no pH adjustment, 6 hr
[11] = ~2.0 mg/mL in pH 4.0 phosphate citrate buffer, 0 hr
[12] = ~2.0 mg/mL in pH 4.0 phosphate citrate buffer, 2 hr
[13] = ~2.0 mg/mL in pH 4.0 phosphate citrate buffer, 4 hr
[14] = ~20.0 mg/mL in DI Water, no pH adjustment, 0 hr
[15] = ~20.0 mg/mL in DI Water, no pH adjustment, 2 hr
[16] = ~20.0 mg/mL in DI Water, no pH adjustment, 4 hr
[17] = ~20.0 mg/mL in DI Water, no pH adjustment, 6 hr

Question: Which “tolerance compared to doxorubicin” value [1] does the source give for `COc1cccc2c1C(=O)c1c(O)c3c(c(O)c1C2=O)C[C@@](O)(/C(CO)=N/NC(=O)CCCCCN1C(=O)C=CC1=O)C[C@@H]3O[C@H]1C[C@H](N)[C@H](O)[C@H](C)O1.Cl` [DOXO-EMCH] here?
Answer: significantly higher tolerance

Question: What about the tumor response ([2]; in some cases) of the same compound?
Answer: induced tumor regression

Question: What about the clinical safety [2] of the same compound?
Answer: safe for clinical use

Question: And the stability ([3]; dissolved in pH 4.0 phosphate citrate buffer)?
Answer: very unstable

Question: What about the DOXO-EMCH [3, 7] of the same compound?
Answer: 95.8 wt %

Question: And the Doxorubicin [3, 7]?
Answer: 0.6 wt %

Question: And the pH [3, 7]?
Answer: 6.0

Question: And the DOXO-EMCH [3, 8]?
Answer: 82.8 wt %

Question: What about the Doxorubicin [3, 8] of the same compound?
Answer: 3.7 wt %

Question: And the pH [3, 8]?
Answer: 5.4

Question: And the DOXO-EMCH [3, 9]?
Answer: 76.7 wt %

Question: And the Doxorubicin [3, 9]?
Answer: 8.9 wt %

Question: What about the pH [3, 9] of the same compound?
Answer: 5.1

Question: What about the DOXO-EMCH [3, 10] of the same compound?
Answer: 68.6 wt %

Question: And the Doxorubicin [3, 10]?
Answer: 14.3 wt %

Question: And the pH [3, 10]?
Answer: 5.0

Question: And the DOXO-EMCH [3, 11]?
Answer: 65.1 wt %

Question: What about the Doxorubicin [3, 11] of the same compound?
Answer: 23.5 wt %

Question: What about the pH [3, 11] of the same compound?
Answer: 4.0

Question: And the DOXO-EMCH [3, 12]?
Answer: 7.3 wt %

Question: And the Doxorubicin [3, 12]?
Answer: 66.1 wt %

Question: And the pH [3, 12]?
Answer: 4.0

Question: And the DOXO-EMCH [3, 13]?
Answer: 2.9 wt %

Question: What about the Doxorubicin [3, 13] of the same compound?
Answer: 68.8 wt %

Question: And the pH [3, 13]?
Answer: 4.0

Question: What about the DOXO-EMCH [3, 14] of the same compound?
Answer: 86.0 wt %

Question: What about the Doxorubicin [3, 14] of the same compound?
Answer: 7.8 wt %

Question: And the pH [3, 14]?
Answer: 4.8

Question: What about the DOXO-EMCH [3, 15] of the same compound?
Answer: 74.9 wt %

Question: What about the Doxorubicin [3, 15] of the same compound?
Answer: 15.6 wt %

Question: And the pH [3, 15]?
Answer: 4.6

Question: And the DOXO-EMCH [3, 16]?
Answer: 56.7 wt %

Question: And the Doxorubicin [3, 16]?
Answer: 24.8 wt %

Question: And the pH [3, 16]?
Answer: 4.5

Question: And the DOXO-EMCH [3, 17]?
Answer: 45.2 wt %

Question: What about the Doxorubicin [3, 17] of the same compound?
Answer: 32.2 wt %

Question: And the pH [3, 17]?
Answer: 4.6

Question: And the “tolerance compared to doxorubicin” value [4]?
Answer: significantly higher tolerance

Question: And the “tolerance compared to doxorubicin” value [5]?
Answer: significantly higher tolerance

Question: What about the solubility ([6]; in ethanol:water) of the same compound?
Answer: completely soluble

Question: What about the “time to go into solution” value ([6]; in ethanol:water) of the same compound?
Answer: within less than a minute

Question: And the “mixing time until solutions appeared visually clear” value ([6]; reconstituted in 50:50 ethanol:water at 10 mg/mL)?
Answer: 120 s

Question: What about the pH ([6]; reconstituted in 50:50 ethanol:water at 10 mg/mL, 10 minutes) of the same compound?
Answer: 5.9

Question: What about the pH ([6]; reconstituted in 50:50 ethanol:water at 10 mg/mL, 20 minutes) of the same compound?
Answer: 5.7 and 5.8

Question: What about the “mixing time until solutions appeared visually clear” value ([6]; reconstituted in LR at 10 mg/mL) of the same compound?
Answer: 120 s

Question: And the pH ([6]; reconstituted in LR at 10 mg/mL, 10 minutes)?
Answer: 6.0 and 5.9

Question: And the pH ([6]; reconstituted in LR at 10 mg/mL, 20 minutes)?
Answer: 5.9 and 5.8

Question: And the pH ([6]; reconstituted in SWFI at 10 mg/mL, 10 minutes)?
Answer: 5.4 and 5.3

Question: And the pH ([6]; reconstituted in SWFI at 10 mg/mL, 20 minutes)?
Answer: 5.1 and 5.5

Question: And the “mixing time until solutions appeared visually clear” value ([6]; reconstituted in SWFI at 10 mg/mL, a few undissolved particles remained)?
Answer: 90 to 120 s
